“Also recorded” adds a separate entry of the source.
Legend:
[1] = system: angiotensin II (AII)-induced AAA; assay: AII-induced AAA mouse model, post-treatment; format: in vivo
From the text: To determine if senescence is a major cause of aneurysm development, the association between senescence and aneurysms using the angiotensin II (AII)-induced AAA model was investigated. Mice were infused AII for four weeks using osmotic mini-pump implantation into Apoe^−/− transgenic mouse.
To investigate the therapeutic potential of ketotherapy for abdominal aortic aneurysm (AAA), Ketogenic-diet (KD) and Ketone-ester (KE) were provided to angiotensin II (AII)-induced mouse model of AAA (FIG. 6). […] After completing AII infusion, the mice were post-treated with KD and KE for two to four weeks.
To investigate the time-dependent reduction of aorta diameter, the inner diameter of the aorta using ultrasound analysis was measured.

senescent SMCs (SNC) = assay: Caspase 3 activity assay on senescent SMCs; format: cell-based; conditions: p53 inhibition by pifithirin-α, FIG. 2J
Description: FIGS. 2A-2L. (a) Cytotoxicity assay of normal smooth muscle cells (NS) and senescent smooth muscle cells (SMCs). Replicative senescent SMCs (RS) and premature senescent SMCs, stimulated by H2O2 (HP), arsenic (Ars), and Nutlin 3a (Nut) treatment were treated with βHB, s-βHB, and ABT-737. (b) Flow cytometry analysis of apoptosis by βHB or s-βHB in radiation (10 Gy)-induced senescent SMC. (c) Quantitation of apoptotic cell and senescent cell after treating βHB and s-βHB in radiation-induced senescent SMC. (d) Representative aorta image of AII-infused mice with post-treatment of ABT-737, βHB and s-βHB. (e) External diameter of abdominal aorta infused with AII and post-treated with ABT-737 βHB and s-βHB. (f) SA-βGal activity assay of the whole aorta infused with AII, and post-treated with ABT-737, KD, or KE. (g) Quantitation of senescent area on aorta of AII-infused mice, and post-treated with KD, KE and ABT-737. (h) TUNEL assay on the abdominal aorta of AII infused mice, and treated with ABT-737, βHB, or s-βHB. SM-α Actin (SMA) and DAPI are co-stained after TUNEL reaction. (i) Caspase 3 activity assay on normal SMCs (NC) treated with βHB, or s-βHB, and ABT-737 comparing to normal cells pretreated with Nutlin-3a. (j) Caspase 3 activity assay on senescent SMCs (SNC) treated with βHB, or s-βHB, and ABT-737 compared to senescent cells pretreated with pifithrin-α. […]

[2] = in vivo
From the text: We established an in vivo tolerance test of βHB and s-βHB (FIGS. 9A and 9B). […] The reduction of the inner diameter of the aortic wall is also dramatic in the treatment of s-βHB in FIG. 9F (Two-way ANOVA, ^###P<0.005, n=10).

[3] = system: Oct4 overexpressed senescent SMCs; assay: Oct4 overexpressed senescent SMCs (SA β-Gal, Western blot); format: cell-based
From the text: FIGS. 14A-14B show (a) SA β-Gal activity on Oct4 overexpressed SMCs with or without βHB treatment (2 days). Irradiated SMCs were infected by Lentivirus containing Crispr-dCas9-VP64_Oct4 plasmid prior to treating βHB. The arrow indicates localized senescent cell mass. (b) Western blot analysis after lentivirus (Crispr-dCas9-VP64_Oct4) infection into senescent SMCs without βHB treatment for 1 day or 2 days.
We proposed that Oct4 upregulation in senescence forms senescent spheroid-like cell mass and asymmetric configuration of aneurysms. To validate our central hypothesis, we overexpressed Oct4 in senescent SMCs using the CRISPR-dCas9-VP64 system to determine the role of Oct4. […] Localized increase of senescence may be highly associated with asymmetric dilation of aneurysms. […] We supposed that βHB prevents or reverses Oct4-induced senescence of SMCs, consequently reducing the size of aneurysms. To investigate the role of βHB in aneurysms, we assess the possibility of cellular reprogramming in senescent SMCs in the condition of Oct4 overexpression. […] In particular, a moderate increase of FAP (Fibroblast Activation Protein) provides a potential for reprogramming resulting in transdifferentiation of SMCs to myofibroblast. Recovered SM22 expression in Oct4 overexpressed senescent SMCs supposed that βHB converts the Oct4 function in dedifferentiation into a reprogramming-related role. We considered an βHB-induced epigenetic alteration of senescent cells contributing to Oct4-dependent cellular reprogramming based on this unique observation.

For `C[C@@H](O)CC(=O)O` [βHB, (R)-3-Hydroxybutyrate], the “TUNEL assay, apoptosis of senescent plaque in the aneurysm” value ([1]; FIG. 2H) was “induced targeted apoptosis of senescent plaque”, the “abdominal aorta stiffness, Pulse Wave Velocity (PWV)” value ([1]; FIG. 3H, FIG. 18A) was “ameliorated vascular stiffness; also recorded: reversed aneurysm-associated aortic stiffness” and the “KβHB modified protein in abdominal aorta” value ([1]; in vivo, immunofluorescent staining, FIG. 15B) was “increases KβHB modified protein in nuclear”. The “AAA rate after post-treating” value ([1]; incidence of AAA by angiotensin II infusion 67%, n=10, FIG. 9D) was 47%, the “AAA on whole aorta images” value ([1]; injected every other day for two weeks, FIG. 2D) was “successfully rescued” and the “myofibroblast, SM α-Actin and FSP co-staining in aortic wall” value ([1]; post-treatment, FIGS. 17A-17B) was “increases”. For the same compound, the “apoptosis with p53 inhibition” value (senescent SMCs (SNC)) was “did not induce apoptosis”, the half-life [2] was 50 min and the metabolic elimination rate [2] was “faster than s-βHB”. The “SM22 and β-galactosidase in Oct4 overexpressed-senescent cells” value ([3]; Oct4 overexpressed, FIG. 14B) was “recovers SMC maturation marker (SM22) and reduced senescence marker (β-galactosidase)”, the “localized senescence, SA β-Gal activity” value ([3]; Oct4 overexpression by CRISPR-dCas9-VP64, FIG. 14A) was “significantly reverses or prevents the development of localized senescence” and the “SM22 in senescent SMCs without Oct4 activation” value ([3]; without Oct4 activation, FIG. 14B) was “does not recover SM22”.

From US20240342121A1, “THE USE OF BETA-HYDROXYBUTYRATES FOR THE TREATMENT OR PREVENTION OF ANEURYSMS AND DISSECTIONS” (priority 2021, published 2024)
